Measured values: US20160250213A1, “FORMULATIONS OF AZAINDOLE COMPOUNDS” (priority 2013, published 2016)
Counter-ions that a name gives are not always drawn. Like-named read-outs stand apart in the source and are kept apart here.

Columns and labels:
physchem = conditions: water, thermodynamic from solid
[1] = Water activity tests: competition slurry in IPA/water mixtures; type: physicochemical
[2] = Hydrate formation of free base versus humidity / water activity; type: physicochemical; conditions: ambient temperature
[3] = solvent Acetonitrile, ambient temperature, listed as Form A HCl salt of Compound (1)
[4] = solvent Chloroform, ambient temperature, listed as Form A HCl salt of Compound (1)
[5] = solvent Cyclohexane, ambient temperature
[6] = solvent Dimethylsulfoxide, ambient temperature, listed as Form A HCl salt of Compound (1)
[7] = solvent Ethylene glycol, ambient temperature
[8] = solvent Formic acid, ambient temperature, listed as Form A HCl salt of Compound (1)
[9] = solvent Hexane, ambient temperature
[10] = solvent Methanol, ambient temperature
[11] = solvent Methylcyclohexane, ambient temperature
[12] = solvent Tetralin, ambient temperature
[13] = solvent 1,4-Dioxane, ambient temperature
[14] = solvent 1-Pentanol, ambient temperature
[15] = solvent 1-Propanol, ambient temperature
[16] = solvent 2-Butanol, ambient temperature
[17] = solvent 2-Ethoxyethanol, ambient temperature
[18] = solvent 2-Methoxyethanol, ambient temperature
[19] = solvent 2-Propanol, ambient temperature
[20] = solvent Acetone, ambient temperature
[21] = solvent Dimethylsulfoxide, ambient temperature
[22] = solvent Ethanol, ambient temperature
[23] = solvent Formic acid, ambient temperature
[24] = solvent Methyl acetate, ambient temperature
[25] = solvent Methyl tetrahydrofuran, ambient temperature
[26] = solvent Methylethyl ketone, ambient temperature
[27] = solvent N,N-Dimethylacetamide, ambient temperature
[28] = solvent N,N-Dimethylformamide, ambient temperature
[29] = solvent Tetrahydrofuran, ambient temperature
[30] = solvent t-Butylmethylether, ambient temperature
[31] = solvent xylene, ambient temperature

`O=C(O)[C@H]1C2CCC(CC2)C1Nc1nc(-c2c[nH]c3ncc(F)cc23)ncc1F` (stereo partly shown) [Form A of HCl salt of Compound (1).½H2O] gave a Sol. (solvent 1,1,2-Trichloroethane, ambient temperature, listed as Form A HCl salt of Compound (1)) of less than 0.1 mg/mL, a Sol. (solvent 1,2-Dichloroethane, ambient temperature, listed as Form A HCl salt of Compound (1)) of 1.7 mg/mL and a Sol. (solvent 1,2-Dimethoxyethane, ambient temperature, listed as Form A HCl salt of Compound (1)) of 0.5 mg/mL. For the same compound, the Sol. (solvent 1,4-Dioxane, ambient temperature, listed as Form A HCl salt of Compound (1)) was 0.4 mg/mL, the Sol. (solvent 1-Butanol, ambient temperature, listed as Form A HCl salt of Compound (1)) was 2.9 mg/mL and the Sol. (solvent 1-Pentanol, ambient temperature, listed as Form A HCl salt of Compound (1)) was 3.3 mg/mL. It also gave a Sol. (solvent 1-Propanol, ambient temperature, listed as Form A HCl salt of Compound (1)) of 10.7 mg/mL, a Sol. (solvent 2-Butanol, ambient temperature, listed as Form A HCl salt of Compound (1)) of 2.9 mg/mL and a Sol. (solvent 2-Methoxyethanol, ambient temperature, listed as Form A HCl salt of Compound (1)) of 34.1 mg/mL. The Sol. (solvent 2-Methy-1-propanol, ambient temperature, listed as Form A HCl salt of Compound (1)) was 3.5 mg/mL, the Sol. (solvent 2-Propanol, ambient temperature, listed as Form A HCl salt of Compound (1)) was 3.3 mg/mL and the Sol. (solvent 3-Methyl-1-butanol, ambient temperature, listed as Form A HCl salt of Compound (1)) was 3.2 mg/mL. For the same compound, the Sol. (solvent Acetone, ambient temperature, listed as Form A HCl salt of Compound (1)) was 1.5 mg/mL, the “Resulting Form” value [3] was “Solvate” and the Sol. [3] was 0.5 mg/mL. It also gave a Sol. (solvent Anisole, ambient temperature, listed as Form A HCl salt of Compound (1)) of less than 0.1 mg/mL, a Sol. (solvent Butyl acetate, ambient temperature, listed as Form A HCl salt of Compound (1)) of 0.2 mg/mL and a Sol. (solvent Chlorobenzene, ambient temperature, listed as Form A HCl salt of Compound (1)) of less than 0.1 mg/mL. The “Resulting Form” value [4] was “Solvate”, the Sol. [4] was less than 0.1 mg/mL and the Sol. (solvent Cumene, ambient temperature, listed as Form A HCl salt of Compound (1)) was less than 0.1 mg/mL. For the same compound, the Sol. [5] was less than 0.1 mg/mL, the Sol. (solvent Dichloromethane, ambient temperature, listed as Form A HCl salt of Compound (1)) was 0.1 mg/mL and the “Resulting Form” value [6] was “Solvate”. For the same compound, the Sol. [6] was 346.5 mg/mL, the Sol. (solvent Ethanol, ambient temperature, listed as Form A HCl salt of Compound (1)) was 19.9 mg/mL and the Sol. (solvent Ethyl acetate, ambient temperature, listed as Form A HCl salt of Compound (1)) was 0.2 mg/mL. The Sol. (solvent Ethyl ether, ambient temperature, listed as Form A HCl salt of Compound (1)) was 0.1 mg/mL, the Sol. (solvent Ethyl formate, ambient temperature, listed as Form A HCl salt of Compound (1)) was 0.4 mg/mL and the “Resulting Form” value [7] was “Solvate”. The Sol. (solvent Ethylene glycol, ambient temperature, listed as Form A HCl salt of Compound (1)) was 108.1 mg/mL, the “Resulting Form” value [8] was “Solvate” and the Sol. [8] was 214.0 mg/mL. The Sol. (solvent Heptane, ambient temperature, listed as Form A HCl salt of Compound (1)) was less than 0.1 mg/mL, the Sol. [9] was less than 0.1 mg/mL and the Sol. (solvent Isobutyl acetate, ambient temperature, listed as Form A HCl salt of Compound (1)) was 0.2 mg/mL. For the same compound, the Sol. (solvent Isopropyl acetate, ambient temperature, listed as Form A HCl salt of Compound (1)) was 0.4 mg/mL, the “Resulting Form” value [10] was “Solvate” and the Sol. (solvent Methanol, ambient temperature, listed as Form A HCl salt of Compound (1)) was 46.4 mg/mL. It also gave a Sol. (solvent Methyl acetate, ambient temperature, listed as Form A HCl salt of Compound (1)) of 0.6 mg/mL, a Sol. (solvent Methyl tetrahydrofuran, ambient temperature, listed as Form A HCl salt of Compound (1)) of 0.7 mg/mL and a Sol. (solvent Methylbutyl ketone, ambient temperature, listed as Form A HCl salt of Compound (1)) of 0.4 mg/mL. For the same compound, the Sol. [11] was less than 0.1 mg/mL, the Sol. (solvent Methylethyl ketone, ambient temperature, listed as Form A HCl salt of Compound (1)) was 0.5 mg/mL and the Sol. (solvent Nitromethane, ambient temperature, listed as Form A HCl salt of Compound (1)) was less than 0.1 mg/mL. For the same compound, the Sol. (solvent Pentane, ambient temperature, listed as Form A HCl salt of Compound (1)) was less than 0.1 mg/mL, the Sol. (solvent Propyl acetate, ambient temperature, listed as Form A HCl salt of Compound (1)) was 0.8 mg/mL and the Sol. (solvent Tetrahydrofuran, ambient temperature, listed as Form A HCl salt of Compound (1)) was 0.7 mg/mL. For the same compound, the Sol. [12] was less than 0.1 mg/mL, the Sol. (solvent Toluene, ambient temperature, listed as Form A HCl salt of Compound (1)) was less than 0.1 mg/mL and the “stability in solvent systems” value (solvent systems listed in b317 (chlorobenzene to methyl tetrahydrofuran), ambient temperature, 2 weeks) was “stable”. The Sol. (solvent t-Butylmethylether, ambient temperature, listed as Form A HCl salt of Compound (1)) was 0.4 mg/mL, the Sol. (solvent xylene, ambient temperature, listed as Form A HCl salt of Compound (1)) was less than 0.1 mg/mL and the solubility thermodynamic (physchem) was 600 µg/mL. For the same compound, the “form conversion in competition slurry” value [1] was “converted to Form F”.
`O=C(O)[C@H]1C2CCC(CC2)C1Nc1nc(-c2c[nH]c3ncc(F)cc23)ncc1F` (stereo partly shown) [Form A free base Compound (1)] showed a Sol. (solvent 1,1,2-Trichloroethane, ambient temperature) of 1.0 mg/mL, a Sol. (solvent 1,2-Dichloroethane, ambient temperature) of 0.4 mg/mL and a Sol. (solvent 1,2-Dimethoxyethane, ambient temperature) of 114.0 mg/mL. For the same compound, the “Resulting Form” value [13] was “Solvate (1:1)”, the Sol. [13] was 21.3 mg/mL and the Sol. (solvent 1-Butanol, ambient temperature) was 21.0 mg/mL. For the same compound, the “Resulting Form” value [14] was “No signal”, the Sol. [14] was 14.5 mg/mL and the “Resulting Form” value [15] was “Solvate”. The Sol. [15] was 15.9 mg/mL, the “Resulting Form” value [16] was “Solvate (1:1)” and the Sol. [16] was 14.0 mg/mL. The “Resulting Form” value [17] was “Amorphous”, the Sol. [17] was greater than 113 mg/mL and the “Resulting Form” value [18] was “Amorphous”. The Sol. [18] was greater than 114 mg/mL, the Sol. (solvent 2-Methy-1-propanol, ambient temperature) was 12.2 mg/mL and the “Resulting Form” value [19] was “Solvate(1:1)”. For the same compound, the Sol. [19] was 12.9 mg/mL, the Sol. (solvent 3-Methyl-1-butanol, ambient temperature) was 9.7 mg/mL and the “Resulting Form” value [20] was “Solvate”. For the same compound, the Sol. [20] was 16.3 mg/mL, the Sol. (solvent Acetonitrile, ambient temperature) was 1.0 mg/mL and the Sol. (solvent Anisole, ambient temperature) was 0.7 mg/mL. The Sol. (solvent Butyl acetate, ambient temperature) was 8.1 mg/mL, the Sol. (solvent Chlorobenzene, ambient temperature) was 0.4 mg/mL and the Sol. (solvent Chloroform, ambient temperature) was 3.8 mg/mL. For the same compound, the Sol. (solvent Cumene, ambient temperature) was 0.3 mg/mL, the Sol. [5] was less than 0.1 mg/mL and the Sol. (solvent Dichloromethane, ambient temperature) was 0.9 mg/mL. For the same compound, the “Resulting Form” value [21] was “No signal”, the Sol. [21] was greater than 113 mg/mL and the “Resulting Form” value [22] was “No signal”. For the same compound, the Sol. [22] was 35.5 mg/mL, the Sol. (solvent Ethyl acetate, ambient temperature) was 11.6 mg/mL and the Sol. (solvent Ethyl ether, ambient temperature) was 3.5 mg/mL. The Sol. (solvent Ethyl formate, ambient temperature) was 8.1 mg/mL, the Sol. [7] was 10.4 mg/mL and the Sol. (solvent Formamide, ambient temperature) was 7.0 mg/mL. The “Resulting Form” value [23] was “Amorphous”, the Sol. [23] was greater than 89.4 mg/mL and the Sol. (solvent Heptane, ambient temperature) was less than 1.5 mg/mL. The Sol. [9] was less than 0.1 mg/mL, the Sol. (solvent Isobutyl acetate, ambient temperature) was 4.4 mg/mL and the Sol. (solvent Isopropyl acetate, ambient temperature) was 6.2 mg/mL. For the same compound, the “Resulting Form” value [10] was “Solvate”, the Sol. [10] was 25.5 mg/mL and the “Resulting Form” value [24] was “Solvate”. For the same compound, the Sol. [24] was 9.4 mg/mL, the “Resulting Form” value [25] was “Solvate(1:1)” and the Sol. [25] was 34.8 mg/mL. The Sol. (solvent Methylbutyl ketone, ambient temperature) was 20.0 mg/mL, the Sol. [11] was less than 0.1 mg/mL and the “Resulting Form” value [26] was “Amorphous”. For the same compound, the Sol. [26] was 27.3 mg/mL, the “Resulting Form” value [27] was “Solvate” and the Sol. [27] was greater than 150 mg/mL. For the same compound, the “Resulting Form” value [28] was “Solvate”, the Sol. [28] was 39.2 mg/mL and the Sol. (solvent N-Methylpyrrolidinone, ambient temperature) was greater than 149 mg/mL. The Sol. (solvent Nitromethane, ambient temperature) was 0.3 mg/mL, the Sol. (solvent Pentane, ambient temperature) was less than 0.3 mg/mL and the Sol. (solvent Propyl acetate, ambient temperature) was 7.5 mg/mL. The “Resulting Form” value [29] was “Solvate(1:1)”, the Sol. [29] was 61.2 mg/mL and the Sol. [12] was less than 0.1 mg/mL. For the same compound, the Sol. (solvent Toluene, ambient temperature) was 0.3 mg/mL, the “Resulting Form” value (solvent Water-IPA 1:1, ambient temperature) was “Solvate” and the “Resulting Form” value (solvent Water-MeOH 1:1, ambient temperature) was “Solvate”. The “Resulting Form” value (solvent Water-MeOH 1:3, ambient temperature) was “Solvate”, the Sol. (solvent acetic acid, ambient temperature) was 42.8 mg/mL and the “stability in solvent systems” value (solvent systems listed in b344 (acetonitrile to water-acetonitrile)) was “stable”. The “Resulting Form” value [30] was “Amorphous”, the Sol. [30] was 10.4 mg/mL and the “Resulting Form” value [31] was “Solvate”. The Sol. [31] was 0.3 mg/mL, the solubility thermodynamic at 2 weeks (physchem) was less than 100 µg/mL and the “water activity where the hydrate form was observed” value [2] was “greater than 0.6”.
